Measured values: US20250145665A1, “MACROCYCLIC PEPTIDES USEFUL AS MODULATORS OF TNF ALPHA” (Bristol-Myers Squibb Company, priority 2023, published 2025)
Read-outs that look alike come from different tables or passages of the source. Starred links: 1 amine or outer side, 2 acyl side, 3 side chain; linkers in the order of their positions; H or OH if unused. Positions of bridges follow the written chain, without caps; N, C: chain ends. Non-standard residues stand in square brackets, D forms with d. Residues, ends and D or L forms follow the SMILES beside them. *: point of attachment. Bip(4'-(3-HOOC-benzamido)) = N[C@@H](Cc1ccc(-c2ccc(NC(=O)c3cccc(C(=O)O)c3)cc2)cc1)C(=O)O; X10 = Cn1cc(C(=O)Nc2ccc(-c3ccc(C[C@H](N[*:1])C(=O)[*:2])cc3)cc2)c2ccccc21; Bip(4'-NHBz) = N[C@@H](Cc1ccc(-c2ccc(NC(=O)c3ccccc3)cc2)cc1)C(=O)O; Bip(4'-NH) = O=C([C@H](Cc1ccc(-c2ccc(N[*:3])cc2)cc1)N[*:1])[*:2]; Indazole3carbonyl(1-CH2COOH) = O=C(O)Cn1nc(C(=O)*)c2ccccc21; Bip(4'-COOH) = N[C@@H](Cc1ccc(-c2ccc(C(=O)O)cc2)cc1)C(=O)O; Ala(morpholin-4-yl) = N[C@@H](CN1CCOCC1)C(=O)O; Benzoyl(3-OCH2COOH) = O=C(O)COc1cccc(C(=O)*)c1; Phe(3-CONH2) = NC(=O)c1cccc(C[C@H](N)C(=O)O)c1; Benzoyl(3-Ph) = O=C(c1cccc(-c2ccccc2)c1)*; Bip = N[C@@H](Cc1ccc(-c2ccccc2)cc1)C(=O)O; X3 = O=C(O)c1cccc(Oc2ccccc2C(=O)*)c1; X48 = CC(C)(O)Cn1nc(C(=O)*)c2ccccc21; 2Pal = N[C@@H](Cc1ccccn1)C(=O)O; Cha = N[C@@H](CC1CCCCC1)C(=O)O; X20 = O=C(c1csc(-c2ccncc2)n1)*; Tle = CC(C)(C)[C@H](N)C(=O)O; Aze = O=C(O)[C@@H]1CCN1; Sar = CNCC(=O)O

Target: TNFα (Homo sapiens, UniProt P01375)
Experiment: TNF-Induced HEK-Blue Assay
Type: cell-based
[1] = HEK-Blue-CD40L cells, NF-kB-driven secreted alkaline phosphatase reporter, TNFα 0.5 ng/ml, 18 h, read-out: TNF induced HEK-Blue assay IC50 value

Sequence of TNFα (P01375 77-233 limits assumed): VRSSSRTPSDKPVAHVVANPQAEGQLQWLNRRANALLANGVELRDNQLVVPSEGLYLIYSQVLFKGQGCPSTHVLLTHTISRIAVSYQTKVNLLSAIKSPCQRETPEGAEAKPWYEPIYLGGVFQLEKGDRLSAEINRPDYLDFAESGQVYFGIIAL

Structure (SMILES)	IC50 [1] [nM]	IC50 [nM]
CC(C)C[C@@H]1NC(=O)[C@H](CCCNC(=N)N)NC(=O)[C@H](C(C)C)NC(=O)[C@@H]2CCCN2C(=O)[C@H](C(C)C)NC(=O)[C@@H](CCCNC(=N)N)NC(=O)[C@H](CC(=O)O)NC(=O)[C@@H]2CCCN2C(=O)CN(C)C(=O)[C@H](Cc2ccc(-c3ccc(NC(=O)c4cn(C)c5ccccc45)cc3)cc2)NC(=O)[C@H](Cc2ccc(-c3ccccc3)cc2)NC(=O)[C@H](CN2CCOCC2)NC(=O)CSC[C@@H](C(=O)NCC(N)=O)NC1=O [Example 348] ({CH2CO}-[Ala(morpholin-4-yl)][Bip][X10][Sar]PD[dR]VPVRLCG-NH2; thioether N-13)	50 to 200	
CC[C@H](C)[C@@H]1NC(=O)[C@@H]2CCCN2C(=O)[C@H]([C@@H](C)CC)NC(=O)[C@@H](CCCNC(=N)N)NC(=O)[C@H](CC(=O)O)NC(=O)[C@H](Cc2ccccc2)NC(=O)CN(C)C(=O)[C@H](Cc2ccc(-c3ccc(NC(=O)c4ccccc4)cc3)cc2)NC(=O)[C@H](Cc2ccc(-c3ccc(C(=O)O)cc3)cc2)NC(=O)[C@H](C(C)(C)C)NC(=O)CSC[C@@H](C(=O)NCC(N)=O)NC(=O)[C@H](CC(C)C)NC(=O)[C@H](Cc2cnc[nH]2)NC1=O [Example 350] ({CH2CO}-[Tle][Bip(4'-COOH)][Bip(4'-NHBz)][Sar]FD[dR]IPIHLCG-NH2; thioether N-13)		< 50
CC(C)C[C@@H]1NC(=O)[C@H](CCCNC(=N)N)NC(=O)[C@H](C(C)C)NC(=O)[C@@H]2CCCN2C(=O)[C@H](C(C)C)NC(=O)[C@@H](CCCNC(=N)N)NC(=O)[C@H](CC(=O)O)NC(=O)[C@@H]2CCCN2C(=O)CN(C)C(=O)[C@H](Cc2ccc(-c3ccc(NC(=O)c4nn(CC(C)(C)O)c5ccccc45)cc3)cc2)NC(=O)[C@H](Cc2ccc(-c3ccccc3)cc2)NC(=O)[C@H](CN2CCOCC2)NC(=O)CSC[C@@H](C(=O)NCC(N)=O)NC1=O [Example 355] ({CH2CO}-[Ala(morpholin-4-yl)][Bip][Bip(4'-NH)](X48)[Sar]PD[dR]VPVRLCG-NH2; thioether N-13)		< 50
CC[C@H](C)[C@@H]1NC(=O)[C@@H]2CCCN2C(=O)[C@H]([C@@H](C)CC)NC(=O)[C@@H](CCCNC(=N)N)NC(=O)[C@H](CC(=O)O)NC(=O)[C@H](Cc2ccccn2)NC(=O)CN(C)C(=O)[C@H](Cc2ccc(-c3ccc(NC(=O)c4nn(CC(=O)O)c5ccccc45)cc3)cc2)NC(=O)[C@H](Cc2ccc(-c3ccccc3)cc2)NC(=O)[C@H](C(C)(C)C)NC(=O)CSC[C@@H](C(=O)NCC(N)=O)NC(=O)[C@H](CC(C)C)NC(=O)[C@H](Cc2cccc(C(N)=O)c2)NC1=O [Example 356] ({CH2CO}-[Tle][Bip][Bip(4'-NH)](Indazole3carbonyl(1-CH2COOH))[Sar][2Pal]D[dR]IPI[Phe(3-CONH2)]LCG-NH2; thioether N-13)		< 50
CC[C@H](C)[C@@H]1NC(=O)[C@@H]2CCN2C(=O)[C@H]([C@@H](C)CC)NC(=O)[C@@H](CCCNC(=N)N)NC(=O)[C@H](CC(=O)O)NC(=O)[C@H](Cc2ccc(O)cc2)NC(=O)CN(C)C(=O)[C@H](Cc2ccc(-c3ccc(NC(=O)c4nn(CC(=O)O)c5ccccc45)cc3)cc2)NC(=O)[C@H](Cc2ccc(-c3ccccc3)cc2)NC(=O)[C@H](C(C)(C)C)NC(=O)CSC[C@@H](C(=O)NCC(N)=O)NC(=O)[C@H](CC(C)C)NC(=O)[C@H](Cc2ccc(O)cc2)NC1=O [Example 357] ({CH2CO}-[Tle][Bip][Bip(4'-NH)](Indazole3carbonyl(1-CH2COOH))[Sar]YD[dR]I[Aze]IYLCG-NH2; thioether N-13)		50 to 200

Further lines, with some results ahead:

IC50 [1] [nM]	Structure (SMILES)	IC50 [nM]
200 to 2000	CC[C@H](C)[C@@H]1NC(=O)[C@@H](CCCNC(=N)N)NC(=O)[C@H](CC(=O)O)NC(=O)[C@H](Cc2cnc[nH]2)NC(=O)CN(C)C(=O)[C@H](Cc2ccc(-c3ccc(NC(=O)c4cccc(-c5ccccc5)c4)cc3)cc2)NC(=O)[C@H](Cc2ccc(-c3ccccc3)cc2)NC(=O)[C@H](CC2CCCCC2)NC(=O)CSC[C@@H](C(=O)NCC(N)=O)NC(=O)[C@H](CC(C)C)NC(=O)[C@H](Cc2cnc[nH]2)NC(=O)[C@H](C(C)C)NC(=O)[C@@H]2CCCN2C1=O [Example 349] ({CH2CO}-[Cha][Bip][Bip(4'-NH)](Benzoyl(3-Ph))[Sar]HD[dR]IPVHLCG-NH2; thioether N-13)	
< 50	CC[C@H](C)[C@@H]1NC(=O)[C@@H]2CCCN2C(=O)[C@H]([C@@H](C)CC)NC(=O)[C@@H](CCCNC(=N)N)NC(=O)[C@H](CC(=O)O)NC(=O)[C@H](Cc2ccccc2)NC(=O)CN(C)C(=O)[C@H](Cc2ccc(-c3ccc(NC(=O)c4cccc(C(=O)O)c4)cc3)cc2)NC(=O)[C@H](Cc2ccc(-c3ccc(C(=O)O)cc3)cc2)NC(=O)[C@H](C(C)(C)C)NC(=O)CSC[C@@H](C(=O)NCC(N)=O)NC(=O)[C@H](CC(C)C)NC(=O)[C@H](Cc2cnc[nH]2)NC1=O [Example 351] ({CH2CO}-[Tle][Bip(4'-COOH)][Bip(4'-(3-HOOC-benzamido))][Sar]FD[dR]IPIHLCG-NH2; thioether N-13)	
< 50	CC[C@H](C)[C@@H]1NC(=O)[C@@H]2CCCN2C(=O)[C@H]([C@@H](C)CC)NC(=O)[C@@H](CCCNC(=N)N)NC(=O)[C@H](CC(=O)O)NC(=O)[C@H](Cc2ccccc2)NC(=O)CN(C)C(=O)[C@H](Cc2ccc(-c3ccc(NC(=O)c4cccc(OCC(=O)O)c4)cc3)cc2)NC(=O)[C@H](Cc2ccc(-c3ccc(C(=O)O)cc3)cc2)NC(=O)[C@H](C(C)(C)C)NC(=O)CSC[C@@H](C(=O)NCC(N)=O)NC(=O)[C@H](CC(C)C)NC(=O)[C@H](Cc2cnc[nH]2)NC1=O [Example 352] ({CH2CO}-[Tle][Bip(4'-COOH)][Bip(4'-NH)](Benzoyl(3-OCH2COOH))[Sar]FD[dR]IPIHLCG-NH2; thioether N-13)	
< 50	CC[C@H](C)[C@@H]1NC(=O)[C@@H]2CCCN2C(=O)[C@H]([C@@H](C)CC)NC(=O)[C@@H](CCCNC(=N)N)NC(=O)[C@H](CC(=O)O)NC(=O)[C@H](Cc2ccccc2)NC(=O)CN(C)C(=O)[C@H](Cc2ccc(-c3ccc(NC(=O)c4csc(-c5ccncc5)n4)cc3)cc2)NC(=O)[C@H](Cc2ccc(-c3ccc(C(=O)O)cc3)cc2)NC(=O)[C@H](C(C)(C)C)NC(=O)CSC[C@@H](C(=O)NCC(N)=O)NC(=O)[C@H](CC(C)C)NC(=O)[C@H](Cc2cnc[nH]2)NC1=O [Example 353] ({CH2CO}-[Tle][Bip(4'-COOH)][Bip(4'-NH)](X20)[Sar]FD[dR]IPIHLCG-NH2; thioether N-13)	
50 to 200	CC[C@H](C)[C@@H]1NC(=O)[C@@H](CCCNC(=N)N)NC(=O)[C@H](CC(=O)O)NC(=O)[C@H](Cc2cnc[nH]2)NC(=O)CN(C)C(=O)[C@H](Cc2ccc(-c3ccc(NC(=O)c4ccccc4Oc4cccc(C(=O)O)c4)cc3)cc2)NC(=O)[C@H](Cc2ccc(-c3ccccc3)cc2)NC(=O)[C@H](CC2CCCCC2)NC(=O)CSC[C@@H](C(=O)NCC(N)=O)NC(=O)[C@H](CC(C)C)NC(=O)[C@H](Cc2cnc[nH]2)NC(=O)[C@H](C(C)C)NC(=O)[C@@H]2CCCN2C1=O [Example 354] ({CH2CO}-[Cha][Bip][Bip(4'-NH)](X3)[Sar]HD[dR]IPVHLCG-NH2; thioether N-13)	
